Assay results reported in PubChem BioAssay (NCI).
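Five compound concentrations were applied to cells in 96-well plates for 48 hours; endpoints were derived by simple linear interpolation of the resulting dose-response curve. GI50 = concentration required for 50% inhibition of growth. TGI denotes the concentration required for complete inhibition of growth.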

Legend:
Experiment in all cases: NCI-60 cell line screen, 48 h
[1] = system: IGROV1 ovarian
[2] = system: HT29 colon
[3] = system: SN12C renal
[4] = system: SF-539 CNS
[5] = system: CAKI-1 renal
[6] = system: SF-295 CNS
[7] = system: TK-10 renal
[8] = system: UO-31 renal
[9] = system: U251 CNS
[10] = system: HOP-92 NSCLC

## COc1ccc(/C=C/C(=O)c2sc(-n3nc(-c4ccccc4)cc3-c3ccccc3)nc2C)cc1
[1]
  GI50: > 100 µM
  TGI: > 100 µM
[2]
  TGI: > 100 µM
[3]
  TGI: > 100 µM
[4]
  GI50: > 100 µM
  TGI: > 100 µM
[5]
  TGI: > 100 µM
[6]
  GI50: > 100 µM
  TGI: > 100 µM
[7]
  GI50: > 100 µM
  TGI: > 100 µM
[8]
  TGI: > 100 µM
[9]
  TGI: > 100 µM

## COc1ccc(N=N/C(C(=O)C(F)(F)F)=C(\O)c2ccc(Cl)cc2)cc1
[1]
  GI50: 9.82 µM
  TGI: > 100 µM
[2]
  GI50: 4.6 µM
  TGI: 17.2 µM
[3]
  GI50: 16.6 µM
  TGI: > 100 µM
[4]
  GI50: 6.33 µM
  TGI: 39.8 µM
[5]
  GI50: 3.97 µM
  TGI: 25.5 µM
[6]
  GI50: 2.67 µM
  TGI: 11.9 µM
[7]
  GI50: 18.3 µM
  TGI: 61.4 µM
[8]
  GI50: 8.18 µM
  TGI: 47.6 µM
[9]
  GI50: 4.55 µM
  TGI: 27.8 µM

## CC(=O)C1=C(O)C2C3c4c[nH]c5cccc(c45)CC3C(C)(C)N2C1=O (stereo unspecified)
[1]
  TGI: > 100 µM
[2]
  TGI: > 100 µM
[4]
  TGI: 44.4 µM
[5]
  TGI: > 100 µM
[6]
  TGI: > 100 µM
[7]
  TGI: > 100 µM
[8]
  TGI: 81.6 µM
[10]
  TGI: > 100 µM
[9]
  TGI: > 100 µM

## NC(=S)c1c(N)n(C2OC(CO)C(O)C2O)c2ncnc(N)c12 (stereo unspecified)
[2]
  GI50: 0.147 µM
  TGI: > 40.9 µM
[3]
  GI50: 0.208 µM
  TGI: > 100 µM
[4]
  GI50: 0.241 µM
  TGI: 1.06 µM
[5]
  GI50: 0.515 µM
  TGI: 5.42 µM
[6]
  GI50: 0.659 µM
  TGI: > 27.1 µM
[7]
  GI50: 0.297 µM
  TGI: 3.56 µM
[8]
  GI50: 0.27 µM
  TGI: 2.33 µM
[10]
  GI50: 0.302 µM
  TGI: 3.43 µM
[9]
  GI50: 0.496 µM
  TGI: > 100 µM

## CC(=O)OC1COC(n2c(=S)n(-c3ccccc3)c(=O)c3ccccc32)C(OC(C)=O)C1OC(C)=O (stereo unspecified)
[1]
  TGI: > 100 µM
[2]
  TGI: > 100 µM
[3]
  TGI: > 100 µM
[4]
  TGI: > 100 µM
[5]
  TGI: > 100 µM
[6]
  TGI: 85.7 µM
[8]
  TGI: > 100 µM
[10]
  TGI: > 100 µM
[9]
  TGI: > 100 µM

## CC(SC(=O)Nc1ccc(N=Nc2ccccc2)cc1)C(=O)O (stereo unspecified)
[1]
  TGI: > 100 µM
[2]
  TGI: > 100 µM
[3]
  TGI: > 100 µM
[4]
  TGI: > 100 µM
[5]
  TGI: > 100 µM
[6]
  TGI: > 100 µM
[7]
  TGI: > 100 µM
[8]
  TGI: > 100 µM
[9]
  TGI: > 100 µM

## CC1=C(Nc2ccc(N3CCN(C)CC3)cc2)C(=O)c2cncnc2C1=O
[1]
  GI50: 2.24 µM
  TGI: 5.17 µM
[2]
  GI50: 10.2 µM
  TGI: 61.8 µM
[3]
  GI50: 2.02 µM
  TGI: 4.48 µM
[4]
  GI50: 13.5 µM
  TGI: 26.9 µM
[5]
  GI50: 3.27 µM
  TGI: 14.2 µM
[6]
  GI50: 11.9 µM
  TGI: 28.1 µM
[7]
  GI50: 28.5 µM
  TGI: 58.1 µM
[8]
  GI50: 13.9 µM
  TGI: 33.5 µM
[10]
  GI50: 2.12 µM
  TGI: 4.37 µM

## CCOc1ccc(NC(=O)CC2C(=O)Nc3ccccc3S2(=O)=O)cc1 (stereo unspecified)
[1]
  TGI: > 100 µM
[2]
  TGI: > 100 µM
[3]
  TGI: > 100 µM
[4]
  TGI: > 100 µM
[6]
  TGI: > 100 µM
[7]
  TGI: > 100 µM
[8]
  TGI: > 100 µM
[10]
  TGI: 55.5 µM
[9]
  TGI: > 100 µM

## c1ccc2c(c1)cc1n2CC2CN=NC12 (stereo unspecified)
[1]
  TGI: > 100 µM
[2]
  TGI: > 100 µM
[3]
  TGI: > 100 µM
[4]
  TGI: > 100 µM
[5]
  TGI: > 100 µM
[6]
  TGI: > 100 µM
[8]
  TGI: > 100 µM
[9]
  TGI: > 100 µM

## C=CCc1cc(OC)c2c(c1)C(OC)CC(c1ccc(OC)c(OC)c1)O2 (stereo unspecified)
[1]
  TGI: > 100 µM
[2]
  TGI: > 100 µM
[3]
  TGI: > 100 µM
[4]
  TGI: > 100 µM
[5]
  TGI: > 100 µM
[6]
  TGI: > 100 µM
[7]
  TGI: > 100 µM
[8]
  TGI: > 100 µM
[9]
  TGI: > 100 µM

## C=C1C(=O)OC2/C=C(/C)C(OC(C)=O)C/C=C(\C)C(OC(=O)C3(C)OC3C)C(O)C12 (stereo unspecified)
[1]
  TGI: > 100 µM
[2]
  TGI: > 100 µM
[3]
  TGI: > 100 µM
[4]
  TGI: > 100 µM
[5]
  TGI: > 100 µM
[6]
  TGI: > 100 µM
[7]
  TGI: > 100 µM
[10]
  TGI: > 100 µM
[9]
  TGI: > 100 µM

## Cc1cc(Cl)nc(N(CCCNc2ccnc3cc(Cl)ccc23)Cc2ccco2)n1
[1]
  GI50: 1.92 µM
  TGI: 8.26 µM
[2]
  GI50: 1.38 µM
  TGI: 6.46 µM
[3]
  GI50: 2.45 µM
  TGI: 9.87 µM
[4]
  GI50: 2.33 µM
  TGI: 6.38 µM
[6]
  GI50: 1.28 µM
  TGI: 2.81 µM
[7]
  GI50: 2.7 µM
  TGI: 11.1 µM
[8]
  GI50: 1.08 µM
  TGI: 5.93 µM
[10]
  GI50: 0.779 µM
  TGI: 4.19 µM
[9]
  GI50: 2.07 µM
  TGI: 6.15 µM

## CN1CSC(=S)N(Cc2ccccc2)C1
[1]
  GI50: 10.3 µM
  TGI: 27.5 µM
[2]
  GI50: 3.36 µM
  TGI: 11.6 µM
[3]
  GI50: 15.4 µM
  TGI: 35.7 µM
[4]
  GI50: 4.46 µM
  TGI: 21.3 µM
[5]
  GI50: 34.6 µM
  TGI: > 100 µM
[6]
  GI50: 32.7 µM
  TGI: > 100 µM
[7]
  GI50: 3.39 µM
  TGI: 9.41 µM
[8]
  GI50: 7.93 µM
  TGI: 21.5 µM
[9]
  GI50: 13.5 µM
  TGI: 30.2 µM

## CCn1c(-c2nonc2N)nc2cncc(C(=O)N3CC[C@H](N)C3)c21
[1]
  GI50: > 25 µM
  TGI: > 25 µM
[2]
  GI50: > 25 µM
  TGI: > 25 µM
[3]
  GI50: > 25 µM
  TGI: > 25 µM
[4]
  GI50: 2.63 µM
  TGI: > 25 µM
[5]
  GI50: 2.35 µM
  TGI: > 25 µM
[6]
  GI50: 5.05 µM
  TGI: > 25 µM
[7]
  GI50: 0.549 µM
  TGI: 9.22 µM
[8]
  GI50: 0.269 µM
  TGI: > 8.77 µM
[9]
  GI50: > 25 µM
  TGI: > 25 µM

## CC(=O)O[C@H]1CC[C@@]2(C)C(=CC[C@@H]3C2CC[C@]2(C)Nc4nc5ccccc5cc4CC32)C1 (stereo partly specified)
[1]
  TGI: 30 µM
[2]
  TGI: 3.68 µM
[3]
  TGI: 20.1 µM
[4]
  TGI: 12 µM
[5]
  TGI: 18.4 µM
[6]
  TGI: 13.9 µM
[7]
  TGI: 18.1 µM
[8]
  TGI: 16.9 µM
[9]
  TGI: 7.58 µM

## C[C@]12CCC3[C@@H](CC[C@@H]4c5nonc5CC[C@]34C)C1CC[C@@H]2O (stereo partly specified)
[1]
  TGI: > 100 µM
[2]
  TGI: > 100 µM
[3]
  TGI: 53.2 µM
[4]
  TGI: 32.3 µM
[5]
  TGI: 52.6 µM
[6]
  TGI: > 100 µM
[7]
  TGI: > 100 µM
[10]
  TGI: 57.7 µM
[9]
  TGI: 45.7 µM

## O=C(CC(Cl)=C(Cl)Cl)c1cccc(Cl)c1Cl
[1]
  GI50: 46.3 µM
  TGI: > 100 µM
[2]
  GI50: 75.4 µM
  TGI: > 100 µM
[3]
  GI50: 46.9 µM
  TGI: > 100 µM
[4]
  GI50: 84.1 µM
  TGI: > 100 µM
[7]
  GI50: 28.2 µM
  TGI: > 100 µM
[8]
  GI50: 59.4 µM
  TGI: > 100 µM
[10]
  GI50: 61 µM
  TGI: > 100 µM
[9]
  GI50: 46.3 µM
  TGI: > 100 µM

## CC(C)(C)C(C#N)(C#N)c1ccc(C(C#N)(C#N)C(C)(C)C)nn1
[1]
  TGI: > 100 µM
[2]
  TGI: > 100 µM
[3]
  TGI: > 100 µM
[4]
  TGI: > 100 µM
[5]
  TGI: > 100 µM
[6]
  TGI: > 100 µM
[7]
  TGI: > 100 µM
[8]
  TGI: > 100 µM
[10]
  TGI: > 100 µM
